Data reported in PubChem BioAssay AID256 (DTP/NCI, 2004).
Toxic doses and inconclusive results are not listed.

Test system: CD2F1 mice, L1210 leukemia ip, survival T/C
Assay: NCI In Vivo Anticancer Drug Screen. Data for tumor model L1210 Leukemia (intraperitoneal) in CD2F1 (CDF1) mice
Details: endpoint: mean survival time, higher = longer survival
Procedure, shortened: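 Vehicle-treated tumor-bearing mice served as controls (C) for compound-treated mice (T). Reported figure is T divided by C.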

[1] = dose: 25.0 mg/kg/injection, schedule: Q01DX009 (ip), vehicle: saline
[2] = dose: 50.0 mg/kg/injection, schedule: Q04DX003 (ip), vehicle: saline with Tween-80
[3] = dose: 100.0 mg/kg/injection, schedule: Q04DX003 (ip), vehicle: saline with Tween-80
[4] = dose: 200.0 mg/kg/injection, schedule: Q04DX003 (ip), vehicle: saline with Tween-80
[5] = dose: 400.0 mg/kg/injection, schedule: Q04DX003 (ip), vehicle: saline with Tween-80

O=C(CCBr)N1CCN(C(=O)CCBr)CC1
T/C (dose: 4.0 mg/kg/injection, schedule: Q03HX016 (ip), vehicle: saline): 100 % of control
T/C (dose: 4.0 mg/kg/injection, schedule: Q03HX024 (ip), vehicle: saline): 100 % of control
T/C (dose: 8.0 mg/kg/injection, schedule: Q03HX016 (ip), vehicle: saline): 101 % of control
T/C (dose: 8.0 mg/kg/injection, schedule: Q03HX016 (oral), vehicle: saline): 93 % of control
T/C (dose: 8.0 mg/kg/injection, schedule: Q03HX024 (ip), vehicle: saline): 110 % of control
T/C (dose: 8.0 mg/kg/injection, schedule: Q03HX024 (oral), vehicle: saline): 119 % of control
T/C (dose: 16.0 mg/kg/injection, schedule: Q03HX008 (ip), vehicle: saline): 120 % of control
T/C (dose: 16.0 mg/kg/injection, schedule: Q03HX008 (oral), vehicle: saline): 124 % of control
T/C (dose: 16.0 mg/kg/injection, schedule: Q03HX016 (ip), vehicle: saline): 117 % of control
T/C (dose: 16.0 mg/kg/injection, schedule: Q03HX016 (oral), vehicle: saline): 100 % of control
T/C (dose: 16.0 mg/kg/injection, schedule: Q03HX024 (ip), vehicle: saline): 172 % of control
T/C (dose: 16.0 mg/kg/injection, schedule: Q03HX024 (oral), vehicle: saline): 123 % of control
T/C [1]: 124 % of control
T/C (dose: 25.0 mg/kg/injection, schedule: Q03DX003 (ip), vehicle: saline): 115 % of control
T/C (dose: 25.0 mg/kg/injection, schedule: Q04DX003 (ip), vehicle: saline): 108 % of control
T/C (dose: 32.0 mg/kg/injection, schedule: Q01DX009 (ip), vehicle: saline): 161 % of control
T/C (dose: 32.0 mg/kg/injection, schedule: Q01DX009 (oral), vehicle: saline): 150 % of control
T/C (dose: 32.0 mg/kg/injection, schedule: Q03HX008 (ip), vehicle: saline): 160 % of control
T/C (dose: 32.0 mg/kg/injection, schedule: Q03HX008 (oral), vehicle: saline): 151 % of control
T/C (dose: 32.0 mg/kg/injection, schedule: Q03HX016 (ip), vehicle: saline): 207 % of control
T/C (dose: 32.0 mg/kg/injection, schedule: Q03HX016 (oral), vehicle: saline): 162 % of control
T/C (dose: 32.0 mg/kg/injection, schedule: Q03HX024 (ip), vehicle: saline): 101 % of control
T/C (dose: 32.0 mg/kg/injection, schedule: Q03HX024 (oral), vehicle: saline): 94 % of control
T/C (dose: 32.0 mg/kg/injection, schedule: Q04DX003 (ip), vehicle: saline): 118 % of control
T/C (dose: 32.0 mg/kg/injection, schedule: Q08DX002 (ip), vehicle: saline): 98 % of control
T/C (dose: 50.0 mg/kg/injection, schedule: Q03DX003 (ip), vehicle: saline): 124 % of control
T/C (dose: 50.0 mg/kg/injection, schedule: Q04DX003 (ip), vehicle: saline): 123 % of control
T/C (dose: 64.0 mg/kg/injection, schedule: Q01DX009 (ip), vehicle: saline): 156 % of control
T/C (dose: 64.0 mg/kg/injection, schedule: Q01DX009 (oral), vehicle: saline): 122 % of control
T/C (dose: 64.0 mg/kg/injection, schedule: Q04DX003 (ip), vehicle: saline): 162 % of control
T/C (dose: 64.0 mg/kg/injection, schedule: Q08DX002 (ip), vehicle: saline): 115 % of control
T/C (dose: 64.0 mg/kg/injection, schedule: Q08DX002 (oral), vehicle: saline): 109 % of control
T/C (dose: 100.0 mg/kg/injection, schedule: Q01DX007 (ip), vehicle: saline): 120 % of control
T/C (dose: 100.0 mg/kg/injection, schedule: Q03DX003 (ip), vehicle: saline): 167 % of control
T/C (dose: 128.0 mg/kg/injection, schedule: Q01DX001 (oral), vehicle: saline): 150 % of control
T/C (dose: 128.0 mg/kg/injection, schedule: Q01DX009 (oral), vehicle: saline): 105 % of control
T/C (dose: 128.0 mg/kg/injection, schedule: Q04DX003 (ip), vehicle: saline): 176 % of control
T/C (dose: 128.0 mg/kg/injection, schedule: Q04DX003 (oral), vehicle: saline): 157 % of control
T/C (dose: 128.0 mg/kg/injection, schedule: Q08DX002 (ip), vehicle: saline): 167 % of control
T/C (dose: 256.0 mg/kg/injection, schedule: Q01DX001 (ip), vehicle: saline): 157 % of control
T/C (dose: 256.0 mg/kg/injection, schedule: Q01DX009 (oral), vehicle: saline): 88 % of control
T/C (dose: 256.0 mg/kg/injection, schedule: Q08DX002 (ip), vehicle: saline): 194 % of control
T/C (dose: 256.0 mg/kg/injection, schedule: Q08DX002 (oral), vehicle: saline): 156 % of control
T/C (dose: 512.0 mg/kg/injection, schedule: Q08DX002 (oral), vehicle: saline): 156 % of control

CCCCCCCCCCCCNC=O
T/C [1]: 100 % of control
T/C (dose: 50.0 mg/kg/injection, schedule: Q01DX009 (ip), vehicle: saline): 103 % of control
T/C (dose: 100.0 mg/kg/injection, schedule: Q01DX009 (ip), vehicle: saline): 106 % of control

COC(=O)C1C(O)C(C)C(O)C(C)/C=C\C=C(C)C(=O)Nc2c(C)c(OC(C)=O)c3c(c2O)C(=O)C(C)=C2OCOC(=C23)C(C)=CC(C)(O)C(O)C(C)C1O (stereo not drawn)
T/C [2]: 95 % of control
T/C [3]: 98 % of control
T/C [4]: 92 % of control

c1ccc2nc(N3CCCCC3)ccc2c1
T/C (dose: 25.0 mg/kg/injection, schedule: Q04DX002 (ip), vehicle: saline with Tween-80): 94 % of control
T/C (dose: 50.0 mg/kg/injection, schedule: Q04DX002 (ip), vehicle: saline with Tween-80): 94 % of control
T/C (dose: 100.0 mg/kg/injection, schedule: Q04DX002 (ip), vehicle: saline with Tween-80): 94 % of control

Nc1c2c(nn1-c1ccccc1)C(=O)N(CCc1ccccc1)C2
T/C [5]: 90 % of control

CC1(C)C2CCC(I)(C2)C1O (stereo not drawn)
T/C [2]: 101 % of control
T/C [3]: 101 % of control
T/C [4]: 101 % of control

Cc1ccc(-n2c(O)c(N=Nc3ccccc3)c(=O)n(-c3ccccc3)c2=S)cc1
T/C (dose: 100.0 mg/kg/injection, schedule: Q01DX001 (ip), vehicle: saline with Tween-80): 100 % of control
T/C (dose: 200.0 mg/kg/injection, schedule: Q01DX001 (ip), vehicle: saline with Tween-80): 100 % of control
T/C (dose: 400.0 mg/kg/injection, schedule: Q01DX001 (ip), vehicle: saline with Tween-80): 86 % of control

C[N+](C)(C)Cc1ccc([N+](=O)[O-])cc1
T/C (dose: 5.0 mg/kg/injection, schedule: Q01DX001 (ip), vehicle: saline): 98 % of control
T/C (dose: 10.0 mg/kg/injection, schedule: Q01DX001 (ip), vehicle: saline): 106 % of control
T/C (dose: 20.0 mg/kg/injection, schedule: Q01DX001 (ip), vehicle: saline): 101 % of control
T/C (dose: 40.0 mg/kg/injection, schedule: Q01DX001 (ip), vehicle: saline): 98 % of control
T/C (dose: 80.0 mg/kg/injection, schedule: Q01DX001 (ip), vehicle: saline): 98 % of control

C#CCCCOC(=O)Nc1ccccc1
T/C (dose: 100.0 mg/kg/injection, schedule: Q04DX003 (ip), vehicle: Klucel (hydroxypropylcellulose) (HPC)): 97 % of control
T/C (dose: 200.0 mg/kg/injection, schedule: Q04DX003 (ip), vehicle: Klucel (hydroxypropylcellulose) (HPC)): 95 % of control

O=C(Nc1cc(C(F)(F)F)ccc1Cl)c1ccccc1Cl
T/C (dose: 100.0 mg/kg/injection, schedule: Q01DX009 (ip), vehicle: saline with Tween-80): 104 % of control
T/C [3]: 103 % of control
T/C (dose: 200.0 mg/kg/injection, schedule: Q01DX009 (ip), vehicle: saline with Tween-80): 94 % of control
T/C [4]: 103 % of control
T/C (dose: 400.0 mg/kg/injection, schedule: Q01DX009 (ip), vehicle: saline with Tween-80): 104 % of control
T/C [5]: 101 % of control
